Experimental data reported in patent publication US11059808B2, “Substituted phenylpyrrolecarboxamides with therapeutic activity in HIV” (New York Blood Center, Inc., priority 2014, dated 2021).

Experiments:
[1] = Cytotoxicity in TZM-bl cells (XTT); assay type: cell-based; details: human, XTT, 3 days
Description: The cytotoxicity of test compounds in TZM-bl cells was also measured by the XTT method described previously^7. […] The soluble intracellular formazan was quantitated colorimetrically at 450 nm 4 h later. The percent of cytotoxicity and the CC50 values were calculated as above. (See Table 4)

[2] = tested on: HIV-1 pseudovirus pseudotyped with HXB2 Env; test: microbe, parasite or virus in culture; assay type: cell-based; details: single cycle assay, TZM-bl cells infected with HIV-1 pseudovirus pseudotyped with HXB2 Env;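 further: endpoint is IC50 for inhibition of pseudovirus infection of TZM-bl cells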

`Cc1nc(C(NC(=O)c2ccc(-c3ccc(Cl)c(F)c3)[nH]2)C2CCCCN2)sc1CO` (single isomer, unassigned) [Compound 20] showed a CC50 at 3 days [1] of 15.2 ± 0.2 µM.
Work on `Cc1ccc(-c2ccc(C(=O)NC(c3nc(C)c(CO)s3)C3CCCCN3)[nH]2)cc1F` (single isomer, unassigned) [Compound 22] yielded a CC50 at 3 days [1] of at least 36 µM.
`Cc1ccc(-c2ccc(C(=O)NC(c3nc(C)c(CCO)s3)C3CCCCN3)[nH]2)cc1F` (single isomer, unassigned) [Compound 24] gave a CC50 at 3 days [1] of 28.8 ± 1 µM.
Molecule `Cc1nc(C(NC(=O)c2ccc(-c3ccc(Cl)c(F)c3)[nH]2)C2CCCCN2)sc1CCO` (single isomer, unassigned) [Compound 26] has a CC50 at 3 days [1] of 16.1 ± 0.2 µM.
`Cc1nc(C(NC(=O)c2ccc(-c3ccc(Cl)cc3)[nH]2)C2CCCCN2)sc1CCO` (single isomer, unassigned) [Compound 28] showed a CC50 at 3 days [1] of 17.3 ± 0.1 µM.
Molecule `Cc1ccc(-c2ccc(C(=O)NC(c3nc(C)c(CCCO)s3)C3CCCCN3)[nH]2)cc1F` (single isomer, unassigned) [Compound 30] has a CC50 at 3 days [1] of 17 ± 0.7 µM.
`Cc1nc(C(NC(=O)c2ccc(-c3ccc(Cl)c(F)c3)[nH]2)C2CCCCN2)sc1CCCO` (single isomer, unassigned) [Compound 31] gave a CC50 at 3 days [1] of 8.2 ± 0.3 µM.
In the case of `Cc1nc(C(NC(=O)c2ccc(-c3ccc(Cl)cc3)[nH]2)C2CCCCN2)[nH]c1CO` (single isomer, unassigned) [Compound 33], the CC50 at 3 days [1] is reported as 28 ± 0.5 µM.
Molecule `Cc1nc(C(NC(=O)c2ccc(-c3ccc(Cl)c(F)c3)[nH]2)C2CCCCN2)[nH]c1CO` (single isomer, unassigned) [Compound 35] has a CC50 at 3 days [1] of 25 ± 0.5 µM.
`Cc1ccc(-c2ccc(C(=O)NC(c3nc(C)c(CO)[nH]3)C3CCCCN3)[nH]2)cc1F` (single isomer, unassigned) [Compound 37] gave a CC50 at 3 days [1] of 30 ± 0.3 µM.
`Cc1nc(C(CN)NC(=O)c2ccc(-c3ccc(Cl)cc3)[nH]2)sc1CO` (single isomer, unassigned) [Compound 39] showed a CC50 at 3 days [1] of at least 34 µM.
`Cc1ccc(-c2ccc(C(=O)NC(CN)c3nc(C)c(CO)s3)[nH]2)cc1F` (single isomer, unassigned) [Compound 43] showed a CC50 at 3 days [1] of at least 34 µM.
For `Cc1nc(C(CNC(=N)N)NC(=O)c2ccc(-c3ccc(Cl)cc3)[nH]2)sc1CO` (single isomer, unassigned) [Compound 45], the CC50 at 3 days [1] was over 37 µM.
Work on `Cc1nc(C(CNC(=N)N)NC(=O)c2ccc(-c3ccc(Cl)c(F)c3)[nH]2)sc1CO` (single isomer, unassigned) [Compound 48] yielded a CC50 at 3 days [1] of over 36 µM.
Molecule `Cc1ccc(-c2ccc(C(=O)NC(CNC(=N)N)c3nc(C)c(CO)s3)[nH]2)cc1F` (single isomer, unassigned) [Compound 49] has a CC50 at 3 days [1] of over 37 µM.
`Cc1nc(C(CN)NC(=O)c2ccc(-c3ccc(Cl)c(F)c3)[nH]2)sc1CO` (single isomer, unassigned) [Compound 51] gave a CC50 at 3 days [1] of about 28 µM.
With `CNCC(NC(=O)c1ccc(-c2ccc(Cl)c(F)c2)[nH]1)c1nc(C)c(CO)s1` (single isomer, unassigned) [Compound 56] the IC50 [2] was 1.6 ± 0.6 µM and the CC50 at 3 days [1] was about 21 µM.
`CNCC(NC(=O)c1ccc(-c2ccc(Cl)cc2)[nH]1)c1nc(C)c(CO)s1` (single isomer, unassigned) [Compound 58] gave a CC50 at 3 days [1] of about 37 µM.
With `Cc1nc(C(CN(C)C)NC(=O)c2ccc(-c3ccc(Cl)cc3)[nH]2)sc1CO` (single isomer, unassigned) [Compound 62] the IC50 ([2]; Human immunodeficiency virus 1, HXB2, TZM-bl) was 22 ± 3.8 µM and the CC50 at 3 days [1] was over 40 µM.
Molecule `Cc1ccc(-c2ccc(C(=O)NC(CN(C)C)c3nc(C)c(CO)s3)[nH]2)cc1F` (single isomer, unassigned) [Compound 64] has an IC50 [2] of about 40 µM and a CC50 at 3 days [1] of about 40 µM.
`CC(=O)NCC(NC(=O)c1ccc(-c2ccc(Cl)c(F)c2)[nH]1)c1nc(C)c(COC(C)=O)s1` (single isomer, unassigned) [Compound 66] gave a CC50 at 3 days [1] of over 40 µM.
With `Cc1nc(C(CN(C)C)NC(=O)c2ccc(-c3ccc(Cl)c(F)c3)[nH]2)sc1CO` (single isomer, unassigned) [Compound 67] the CC50 at 3 days [1] was about 29 µM.
Molecule `Cc1ccc(-c2ccc(C(=O)NC(CCN(C)C)c3nc(C)c(CO)s3)[nH]2)cc1F` (single isomer, unassigned) [Compound 72] has a CC50 at 3 days [1] of 36.4 ± 1 µM.
In the case of `Cc1nc(C(CCN(C)C)NC(=O)c2ccc(-c3ccc(Cl)c(F)c3)[nH]2)sc1CO` (single isomer, unassigned) [Compound 74], the IC50 [2] is reported as 4.6 ± 0.2 µM and the CC50 at 3 days [1] is reported as 22 ± 1 µM.
In the case of `Cc1nc(C(CCN(C)C)NC(=O)c2ccc(-c3ccc(Cl)cc3)[nH]2)sc1CO` (single isomer, unassigned) [Compound 76], the CC50 at 3 days [1] is reported as 21.7 ± 1 µM.
Molecule `CNCCC(NC(=O)c1ccc(-c2ccc(C)c(F)c2)[nH]1)c1nc(C)c(CO)s1` (single isomer, unassigned) [Compound 78] has an IC50 [2] of 10.4 ± 0.2 µM and a CC50 at 3 days [1] of 36.4 ± 2.6 µM.
`CNCCC(NC(=O)c1ccc(-c2ccc(Cl)c(F)c2)[nH]1)c1nc(C)c(CO)s1` (single isomer, unassigned) [Compound 80] gave an IC50 [2] of 9.1 ± 1.1 µM and a CC50 at 3 days [1] of 22.3 ± 0.6 µM.
For `CNCCC(NC(=O)c1ccc(-c2ccc(Cl)cc2)[nH]1)c1nc(C)c(CO)s1` (single isomer, unassigned) [Compound 82], the IC50 [2] was 18.6 ± 1.5 µM and the CC50 at 3 days [1] was 23 ± 1.2 µM.
Work on `Cc1ccc(-c2ccc(C(=O)NC(CCN)c3nc(C)c(CO)s3)[nH]2)cc1F` (single isomer, unassigned) [Compound 84] yielded an IC50 [2] of 18.2 ± 2.6 µM and a CC50 at 3 days [1] of 47 ± 0.6 µM.
